Experimental data published in ChEMBL document CHEMBL3621056, “Discovery of mitochondria-targeting berberine derivatives as the inhibitors of proliferation, invasion and migration against rat C6 and human U87 glioma cells” (Medchemcomm, 2015).
The source made the active and inactive calls. The calls are words filed in the database; no cut-off is given here.

Columns and labels:
[1] = Drug uptake in mitochondria of rat C6 cells at 1 uM after 24 hrs by Mitotracker Green FM staining-based laser confocal microscopic analysis; type: ADME; details: c6, 24 h
[2] = tested on: C6; test: Antiinvasive activity in rat C6 cells at 0.5 uM after 24 hrs by Transwell assay relative to control; type: functional
[3] = (§1) Cytotoxicity against human U87 cells assessed as inhibition of cell proliferation after 24 hrs by MTT assay; type: functional, cell-based, U-87MG ATCC; details: U-87 MG
[4] = tested on: U-87MG ATCC; test: as §1; type: functional, cell-based
[5] = n-octanol/water partition coefficient, log P of the compound by HPLC analysis; type: physicochemical
[6] = tested on: U-87MG ATCC; test: Induction of intracellular reactive oxygen species formation in human U87 cells at 2 uM after 24 hrs by DHE dye-based inverted fluorescent microscopic analysis; type: functional, cell-based
[7] = tested on: C6; test: Cytotoxicity against rat C6 cells assessed as inhibition of cell proliferation after 24 hrs by MTT assay; type: functional, cell-based; details: for IC50: C6, 24 h
[8] = tested on: C6; test: Induction of intracellular reactive oxygen species formation in rat C6 cells at 2 uM after 24 hrs by DHE dye-based inverted fluorescent microscopic analysis; type: functional, cell-based
[9] = Antimigratory activity in human U87 cells at 2 uM after 24 hrs by Transwell assay relative to control; type: functional, U-87MG ATCC
[10] = tested on: C6; test: Antimigratory activity in rat C6 cells at 0.5 uM after 24 hrs by Transwell assay relative to control; type: functional
[11] = Antiinvasive activity in human U87 cells at 2 uM after 24 hrs by Transwell assay relative to control; type: functional, U-87MG ATCC
[12] = Drug uptake in mitochondria of human U87 cells at 1 uM after 24 hrs by Mitotracker Green FM staining-based laser confocal microscopic analysis; type: ADME; details: u-87mg atcc
[13] = tested on: U-87MG ATCC; test: (§2) Antimigratory activity in human U87 cells at 2.5 uM after 24 hrs by Transwell assay relative to control; type: functional
[14] = (§3) Antiinvasive activity in human U87 cells at 0.5 uM after 24 hrs by Transwell assay relative to control; type: functional, U-87MG ATCC
[15] = Cytotoxicity against human U87 cells assessed as cell survival rate at 10 uM after 24 hrs by MTT assay relative to control; type: functional, U-87MG ATCC; details: U-87 MG, read-out: Survival
[16] = tested on: C6; test: Cytotoxicity against rat C6 cells assessed as cell survival rate at 10 uM after 24 hrs by MTT assay relative to control; type: functional; details: C6, 24 h, read-out: Survival
[17] = (§4) Antimigratory activity in human U87 cells at 0.5 uM after 24 hrs by Transwell assay relative to control; type: functional, U-87MG ATCC
[18] = (§5) Antiinvasive activity in human U87 cells at 2.5 uM after 24 hrs by Transwell assay relative to control; type: functional, U-87MG ATCC
[19] = as §2; type: functional, U-87MG ATCC
[20] = tested on: C6; test: Antiinvasive activity in rat C6 cells at 5 uM after 24 hrs by Transwell assay; type: functional, cell-based
[21] = tested on: U-87MG ATCC; test: Antiinvasive activity in human U87 cells at 5 uM after 24 hrs by Transwell assay; type: functional, cell-based
[22] = tested on: U-87MG ATCC; test: Antimigratory activity in human U87 cells at 5 uM after 24 hrs by Transwell assay; type: functional, cell-based
[23] = tested on: C6; test: Antimigratory activity in rat C6 cells at 5 uM after 24 hrs by Transwell assay; type: functional, cell-based
[24] = Cytotoxicity against human U87 cells assessed as growth inhibition after 72 hrs by SRB assay; type: functional, cell-based, U-87MG ATCC; details: U-87 MG
[25] = tested on: C6; test: Antiinvasive activity in rat C6 cells at 1 uM after 24 hrs by Transwell assay; type: functional, cell-based
[26] = tested on: C6; test: Antimigratory activity in rat C6 cells at 1 uM after 24 hrs by Transwell assay; type: functional, cell-based
[27] = tested on: C6; test: Cytotoxicity against rat C6 cells assessed as cell survival rate at 20 uM after 24 hrs by MTT assay relative to control; type: functional; details: C6, 24 h, read-out: Survival
[28] = Cytotoxicity against human U87 cells assessed as cell survival rate at 20 uM after 24 hrs by MTT assay relative to control; type: functional, U-87MG ATCC; details: U-87 MG, read-out: Survival
[29] = tested on: U-87MG ATCC; test: as §5; type: functional
[30] = Cytotoxicity against human U87 cells assessed as cell survival rate up to 20 uM after 24 hrs by MTT assay relative to control; type: functional, U-87MG ATCC
[31] = tested on: U-87MG ATCC; test: as §3; type: functional
[32] = tested on: U-87MG ATCC; test: as §4; type: functional

| SMILES | Drug uptake [1] | Activity [2] | IC50 [3] [µM] | inhibition [4] | logP [5] | Activity [6] | inhibition [7] | IC50 [7] [µM] | Activity [8] | Activity [10] | Drug uptake [12] | viability at 10 µM [15] [%] | viability at 10 µM [16] [%] | Activity [18] [%] | Activity [19] [%] | other results |
| --- | --- | --- | --- | --- | --- | --- | --- | --- | --- | --- | --- | --- | --- | --- | --- | --- |
| CCCCCCCCCCCCOc1c(OC)ccc2cc3[n+](cc12)CCc1cc2c(cc1-3)OCO2.[Br-] | Active | >60% | 4.55 | Dose-dependent effect | 3.43 | Active | Dose-dependent effect | 1.24 | Active | >60% | Active | – | – | – | – | Activity [9]: >60%; Activity [11]: >60% |
| CCCCCCCCCCOc1c(OC)ccc2cc3[n+](cc12)CCc1cc2c(cc1-3)OCO2 | – | Active | 5.73 | Dose-dependent effect | 2.26 | Active | Dose-dependent effect | 2.95 | Active | Active | – | – | – | – | – | Activity [13]: Active |
| CCCCCCCCCCCCCCCCc1c2[n+](cc3c(OC)c(OC)ccc13)CCc1cc3c(cc1-2)OCO3.[I-] | Active | >30% | 3.25 | Dose-dependent effect | 3.24 | – | Dose-dependent effect | 1.67 | – | >30% | Active | < 20 | < 20 | – | – | Activity [14]: >30%; Activity [17]: >30% |
| COc1ccc2cc3[n+](cc2c1OCc1ccccc1)CCc1cc2c(cc1-3)OCO2.[Br-] | – | >30% | > 20 | Dose-dependent effect | -0.86 | Active | Dose-dependent effect | 11.5 | Active | >30% | – | – | – | >30 | >30 | – |
| COc1ccc2cc3[n+](cc2c1OC)CCc1cc2c(cc1-3)OCO2.[Cl-] [BERBERINE CHLORIDE] | Active | – | > 20 | – | -1.68 | inactive | – | > 20 | inactive | – | Active | – | – | – | – | Activity [20]: Active; Activity [21]: Active; Activity [22]: Active; Activity [23]: Active |
| Cn1nnc2c(C(N)=O)ncn2c1=O [TEMOZOLOMIDE] | – | – | – | – | – | – | – | – | – | – | – | – | – | – | – | IC50 [24]: 19.4 µM |
| CCCCCCCCCCCCCCCCCCOc1c(OC)ccc2cc3[n+](cc12)CCc1cc2c(cc1-3)OCO2.[Br-] | – | >30% | 22.5 | Dose-dependent effect | 3.01 | inactive | Dose-dependent effect | 4.45 | inactive | >30% | – | – | – | >30 | >30 | – |
| CCCCCCCCCCCCCCCCCCc1c2[n+](cc3c(OC)c(OC)ccc13)CCc1cc3c(cc1-2)OCO3.[I-] | – | >30% | 5.75 | Dose-dependent effect | 3.22 | inactive | Dose-dependent effect | 2.37 | inactive | >30% | – | < 20 | < 20 | >30 | >30 | – |
| COc1ccc2c(Cc3ccccc3)c3[n+](cc2c1OC)CCc1cc2c(cc1-3)OCO2 | – | – | > 20 | Dose-dependent effect | -0.73 | inactive | Dose-dependent effect | 14.4 | inactive | – | – | – | – | – | – | Activity [25]: inactive; Activity [26]: inactive; viability at 20 µM [27]: 37.2%; viability at 20 µM [28]: 67.2%; Activity [29]: inactive; Activity [13]: inactive |
| CCCCCCCCCCCCCCCCOc1c(OC)ccc2cc3[n+](cc12)CCc1cc2c(cc1-3)OCO2.[Br-] | Active | >60% | 15.2 | Dose-dependent effect | 3.41 | – | Dose-dependent effect | 6.12 | – | >60% | Active | – | – | >60 | >60 | Survival [30]: 38.95% |
| CCc1c2c(nc3ccc(OC(=O)N4CCC(N5CCCCC5)CC4)cc13)-c1cc3c(c(=O)n1C2)COC(=O)[C@]3(O)CC [IRINOTECAN] | – | – | – | – | – | – | – | – | – | – | – | – | – | – | – | IC50 [24]: > 250 µM |
| CCCCCCCCCCCCc1c2[n+](cc3c(OC)c(OC)ccc13)CCc1cc3c(cc1-2)OCO3.[I-] | Active | >60% | 3.09 | Dose-dependent effect | 3.66 | Active | Dose-dependent effect | 1.65 | Active | >60% | Active | < 20 | < 20 | – | – | Activity [14]: >60%; Activity [17]: >60% |
| CCCCCCCCCCc1c2[n+](cc3c(OC)c(OC)ccc13)CCc1cc3c(cc1-2)OCO3 | – | Active | 3.65 | Dose-dependent effect | 2.37 | Active | Dose-dependent effect | 1.12 | Active | Active | – | < 20 | < 20 | – | – | Activity [31]: Active; Activity [32]: Active |
